Results: patent US11696913B2, “Prolonged ectoparasite-controlling agent for animal” (MITSUI CHEMICALS AGRO, INC., priority 2017, dated 2023)

Legend:
Ctenocephalides felis [1] = test: In vitro contact test with fleas; details: read-out: insecticidal activity; for pest or weed control at 0.04 µg/cm2, 0.04 µg/cm2: dose 0.04 μg/cm^2, dead or moribund fleas after 48 h; for pest or weed control at 0.2 µg/cm2, 0.2 µg/cm2: dose 0.2 μg/cm^2, dead or moribund fleas after 48 h; for pest or weed control at 1 µg/cm2, 1 µg/cm2: dose 1 μg/cm^2, dead or moribund fleas after 48 h
Summary of the method: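 Adult male and female cat fleas (5-10 per tube) placed in glass tubes coated with compound from acetone solution (900 ppm gives 5 μg/cm^2), kept at room temperature and ambient humidity. After 48 h, motionless or uncoordinated fleas scored dead or moribund; activity expressed as % dead or moribund.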

Plutella xylostella = test: Insecticidal testing against diamondback moth; assay type: in vivo; details: foliar, 144 h, concentration 100 ppm, cabbage leaf dip, third-stage larvae, after 6 days, read-out: pesticidal rate
Excerpt: Insecticidal Testing Against Diamondback Moth (Plutella xylostella)

Ctenocephalides felis [2] = test: Ctenocephalides felis in-vitro feeding test with fleas (CTECFE oral); details: 48 hours, read-out: insecticidal feeding activity; for pest or weed control at 0.16 ppm: dose 0.16 ppm in citrated cattle blood; for pest or weed control at 0.8 ppm: dose 0.8 ppm in citrated cattle blood; for pest or weed control at 4 ppm: dose 4 ppm in citrated cattle blood; for pest or weed control at 0.032 ppm: dose 0.032 ppm in citrated cattle blood
Summary of the method: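 About 20 unfed adult cat fleas fed through parafilm on citrated cattle blood containing test substance (DMSO solution diluted in blood), held at about 37° C. Kill rate scored after 48 hours, 100% meaning all fleas dead.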

Spodoptera litura = test: Insecticidal testing against common cutworm; assay type: in vivo; details: foliar, 144 h, concentration 100 ppm, cabbage leaf dip, second-stage larvae, after 6 days, read-out: pesticidal rate
Excerpt: Insecticidal Testing Against Common Cutworm (Spodoptera litura)

Laodelphax striatellus = test: Insecticidal testing against small brown planthopper; assay type: in vivo; details: 144 h, concentration 100 ppm, sprayed rice seedlings, after 6 days, read-out: pesticidal rate
Protocol: Insecticidal Testing Against Small Brown Planthopper (Laodelphax striatellus)
An additional test was carried out with 10 small brown planthoppers by preparing an acetone solution of the testing compound diluted to a predetermined concentration, spraying the solution onto rice seedlings and air drying the rice seedlings. The medicament was all used as received. The rice seedlings were placed in a constant-temperature room at 25° C., and the survival rate was investigated after 6 days. The test was carried out by means of one group of 10 pests.

Amblyomma americanum = test: In vitro contact test with hard ticks (Amblyomma americanum nymphs); details: read-out: acaricidal activity; for pest or weed control at 0.2 µg/cm2, 0.2 µg/cm2: dose 0.2 μg/cm^2, 48 h; for pest or weed control at 1 µg/cm2, 1 µg/cm2: dose 1 μg/cm^2, 48 h
Summary of the method: (§1)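 Adult R. sanguineus, I. ricinus, D. variabilis or A. americanum nymphs exposed in glass vials coated with compound from acetone (900 ppm gives 5 μg/cm^2). Held 48 h at room temperature (R. sanguineus) or 21° C., 85% rel. hum.; then heated at 45-50° C. ≤5 min, motionless or uncoordinated ticks scored dead/moribund.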

[3] = system: Rhipicephalus (Boophilus) microplus; test: In vitro injection test with Rhipicephalus (Boophilus) microplus (BOOPMI Inj); details: 168 h, laid fertile eggs after 7 days, read-out: acaricidal activity; for pest or weed control at 32 ng: dose 0.032 μg/animal injected; for pest or weed control at 0.00016 mg: dose 0.16 μg/animal injected; for pest or weed control at 0.0008 mg: dose 0.8 μg/animal injected
Summary of the method: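 Test substance in DMSO; 1 μl injected into abdomen of each of 5 engorged adult female ticks, then held at 28° C., 85% rel. hum. Activity scored after 7 days from laying of fertile eggs: 100% = no eggs or all infertile, 0% = all eggs fertile.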

Dermacentor variabilis = test: In vitro contact test with adult hard ticks (Dermacentor variabilis); details: read-out: acaricidal activity; for pest or weed control at 0.2 µg/cm2, 0.2 µg/cm2: dose 0.2 μg/cm^2, 48 h; for pest or weed control at 1 µg/cm2, 1 µg/cm2: dose 1 μg/cm^2, 48 h
Summary of the method: as §1

Rhipicephalus sanguineus = test: In vitro contact test with adult hard ticks (Rhipicephalus sanguineus); details: read-out: acaricidal activity; for pest or weed control at 0.2 µg/cm2, 0.2 µg/cm2: dose 0.2 μg/cm^2, 48 h; for pest or weed control at 1 µg/cm2, 1 µg/cm2: dose 1 μg/cm^2, 48 h
Summary of the method: as §1

Compound | pest or weed control at 0.04 µg/cm2, 0.04 µg/cm2 (Ctenocephalides felis [1]) | pest or weed control at 0.2 µg/cm2, 0.2 µg/cm2 (Ctenocephalides felis [1]) | pest or weed control at 1 µg/cm2, 1 µg/cm2 (Ctenocephalides felis [1]) | pest or weed control at 100 ppm (Plutella xylostella) | pest or weed control at 0.16 ppm (Ctenocephalides felis [2]) | pest or weed control at 0.8 ppm (Ctenocephalides felis [2]) | pest or weed control at 4 ppm (Ctenocephalides felis [2]) | pest or weed control at 100 ppm (Spodoptera litura) | pest or weed control at 100 ppm (Laodelphax striatellus) | pest or weed control at 0.2 µg/cm2, 0.2 µg/cm2 (Amblyomma americanum) | pest or weed control at 1 µg/cm2, 1 µg/cm2 (Amblyomma americanum) | pest or weed control at 32 ng [3] | pest or weed control at 0.00016 mg [3] | pest or weed control at 0.0008 mg [3] | pest or weed control at 0.2 µg/cm2, 0.2 µg/cm2 (Dermacentor variabilis) | pest or weed control at 1 µg/cm2, 1 µg/cm2 (Dermacentor variabilis) | pest or weed control at 0.2 µg/cm2, 0.2 µg/cm2 (Rhipicephalus sanguineus) | pest or weed control at 1 µg/cm2, 1 µg/cm2 (Rhipicephalus sanguineus) | pest or weed control at 0.032 ppm (Ctenocephalides felis [2]) | other results
CN(C(=O)c1ccc(F)cc1F)c1cccc(C(=O)Nc2c(I)cc(C(F)(C(F)(F)F)C(F)(F)F)cc2C(F)(F)F)c1F [Compound 56] | 95% | 95% | 95% | ≥ 70% | 95% | 95% | 95% | ≥ 70% | ≥ 70% | 90% | 90% | 100% | 100% | 100% | 90% | 90% | – | – | – | pest or weed control at 0.04 µg/cm2, 0.04 µg/cm2 (Amblyomma americanum; dose 0.04 μg/cm^2, 48 h): 90%
CN(C(=O)c1ccc(C#N)nc1)c1cccc(C(=O)Nc2c(I)cc(C(F)(C(F)(F)F)C(F)(F)F)cc2C(F)(F)F)c1F [Compound 57] | 95% | 95% | 95% | ≥ 70% | 95% | 95% | 95% | ≥ 70% | ≥ 70% | – | 90% | 100% | 100% | 100% | 90% | 90% | 90% | 90% | – | –
Cc1ccc(C(=O)N(C)c2cccc(C(=O)Nc3c(I)cc(C(F)(C(F)(F)F)C(F)(F)F)cc3C(F)(F)F)c2F)cc1 [Compound 58] | 95% | 95% | 95% | ≥ 70% | – | 95% | 95% | ≥ 70% | ≥ 70% | 90% | 90% | 100% | 100% | 100% | – | – | – | 90% | – | –
CN(C(=O)c1ccc(C(F)(F)F)cc1)c1cccc(C(=O)Nc2c(I)cc(C(F)(C(F)(F)F)C(F)(F)F)cc2C(F)(F)F)c1F [Compound 59] | – | 95% | 95% | ≥ 70% | 95% | 95% | 95% | ≥ 70% | ≥ 70% | – | 90% | 100% | 100% | 100% | – | – | 90% | 90% | – | –
CN(C(=O)c1ccc(F)cc1)c1cccc(C(=O)Nc2c(I)cc(C(F)(C(F)(F)F)C(F)(F)F)cc2[S+]([O-])C(F)(F)F)c1F (stereo not drawn) [Compound 69] | – | 95% | 95% | ≥ 70% | 95% | 95% | 95% | ≥ 70% | ≥ 70% | 90% | 90% | – | 100% | 100% | – | – | 90% | 90% | 95% | –
CN(C(=O)c1ccc(Cl)c(Cl)c1)c1cccc(C(=O)Nc2c(I)cc(C(F)(C(F)(F)F)C(F)(F)C(F)(F)F)cc2C(F)(F)F)c1F (stereo not drawn) [Compound 75] | – | 95% | 95% | ≥ 70% | – | 95% | 95% | ≥ 70% | ≥ 70% | – | 90% | – | 100% | 100% | – | – | 90% | 90% | – | –
O=C(Nc1cccc(C(=O)Nc2c(I)cc(C(F)(C(F)(F)F)C(F)(F)C(F)(F)F)cc2C(F)(F)F)c1F)c1ccc(Cl)c(Cl)c1 (stereo not drawn) [Compound 76] | – | – | – | ≥ 70% | – | 95% | 95% | ≥ 70% | ≥ 70% | – | 90% | – | 100% | 100% | 90% | 90% | 90% | 90% | – | pest or weed control at 0.04 µg/cm2, 0.04 µg/cm2 (Rhipicephalus sanguineus; dose 0.04 μg/cm^2, 48 h): 90%
CN(C(=O)c1ccc(C(F)F)nc1)c1cccc(C(=O)Nc2c(I)cc(C(F)(C(F)(F)F)C(F)(F)F)cc2C(F)(F)F)c1F [Compound 87] | 95% | 95% | 95% | ≥ 70% | 95% | 95% | 95% | ≥ 70% | ≥ 70% | 90% | 90% | 100% | 100% | 100% | 90% | 90% | – | – | 95% | –
CN(C(=O)c1ccc(F)cc1)c1cccc(C(=O)Nc2c(Br)cc(C(F)(C(F)(F)F)C(F)(F)C(F)(F)F)cc2OC(F)(F)F)c1F (stereo not drawn) [Compound 94] | – | – | – | ≥ 70% | 95% | 95% | 95% | ≥ 70% | ≥ 70% | 90% | 90% | 100% | 100% | 100% | – | 90% | 90% | 90% | 95% | pest or weed control at 6.4 ng ([3]; dose 0.0064 μg/animal injected): 100%
CN(C(=O)c1ccc(C(F)(F)F)nc1)c1cccc(C(=O)Nc2c(I)cc(C(F)(C(F)(F)F)C(F)(F)F)cc2OC(F)(F)F)c1F [Compound 117, N-(2-fluoro-3-((2-iodo-4-(perfluoropropan-2-yl)-6-(trifluoromethoxy)phenyl)carbamoyl)phenyl)-N-methyl-6-(trifluoromethyl)nicotinamide] | – | 95% | 95% | ≥ 70% | 95% | 95% | 95% | ≥ 70% | ≥ 70% | – | 90% | 100% | 100% | 100% | – | – | 90% | 90% | 95% | –
